Experimental data: paper PMC11419154 (bioRxiv, 2024)
“Also recorded” adds a separate entry of the source.

Experiments:
Assay type in all cases: cell-based, Drosophila melanogaster
[1] = test system: class III dendritic arborizing (cIII da) neurons; experiment: Confocal GCaMP6f calcium imaging in larval cIII da neurons; conditions: AITC application at time 0 s; n = 12 neurons
[2] = test system: Pickpocket (ppk RNAi in cIV da neurons); experiment: Calcium imaging in cIV da neurons with ppk RNAi; conditions: versus attP genetic control; n = 6 neurons
[3] = test system: Balboa (bba RNAi in cIV da neurons); experiment: Calcium imaging in cIV da neurons with bba RNAi; conditions: versus attP2 genetic control; n = 6 neurons
[4] = test system: dTRPA1-C; experiment: Calcium imaging in cIII da neurons expressing dTRPA1-C; conditions: AITC application at time 0 s; n = 12 neurons
[5] = test system: dTRPA1-D; experiment: Calcium imaging in cIII da neurons expressing dTRPA1-D; conditions: AITC application at time 0 s; n = 12 neurons

C=CCN=C=S [AITC, allyl isothiocyanate] was tested, and the “Calcium response of cIII da neurons, AITC” value [1] was “do not activate strongly in response to AITC”, the “Calcium response with ppk RNAi, AITC” value [2] was “did not strongly affect their responses to AITC; also recorded: respond to AITC similarly as genetic controls” and the “Calcium response with bba RNAi, AITC” value [3] was “did not strongly affect their responses to AITC; also recorded: respond to AITC similarly as genetic controls”. The “Calcium response of cIII da neurons expressing dTRPA1-C, AITC” value [4] was “renders them responsive to AITC; also recorded: rendered them sensitive to AITC” and the “Calcium response of cIII da neurons expressing dTRPA1-D, AITC” value [5] was “renders them responsive to AITC; also recorded: rendered them sensitive to AITC”.
